Measured values published in patent publication US11013677B2, “Methods and compositions to reduce staining for antibacterial oral care compositions” (Colgate-Palmolive Company, priority 2019, dated 2021).

Key:
[1] = Bovine enamel model of CHX staining, FeCl3/CHX/chelator solutions, change in whiteness ΔW*; conditions: for effect on teeth staining caused by CHX: when exposed to an iron solution (FeCl3 + CHX)
Source text: (§1) A bovine enamel model was used to mimic CHX staining. The bovine teeth samples were kept hydrated until use. Baseline (L*, a*, and b*) measurements were taken of the samples before treatment using a spectroshade. The samples were then placed in a solution representing each of the treatments of Table 2 and then in artificial saliva. This cycle of soaking in the treatment and in artificial saliva was then repeated 14 times for each sample, with spectroshade measurements taken every two cycles immediately after soaking in the artificial saliva step (the samples were dabbed dry before measurements). Control samples soaked in FeCl3 alone and FeCl3+CHX solutions were also done.
(§2) The L*, a*, and b* values were used to calculate the change in whiteness (ΔW*) for each tooth after treatment as compared to the baseline values using Formulas (1) and (2) below. W*=((a*−0)^2+(b*−0)^2+(L*−100)^2)^1/2 Formula (1) ΔW*=W*treated−W*baseline Formula (2)
The more positive the value of ΔW*, the darker the tooth color is.

[2] = Bovine enamel staining model, CHX oral care compositions with metal chelator, ΔW*; conditions: for effect on CHX-staining (ΔW*): added to an oral care composition containing CHX
Source text: as §1, §2
Table 4 illustrates the effects of a metal chelator on CHX-caused staining when incorporating into an oral care composition including CHX according to implementations of the present disclosure. In particular, Table 4 illustrates the ΔW* for 5 oral care compositions containing CHX and measured similarly as described above. The more positive the value of ΔW*, the darker the tooth color is.
Oral Care Composition #1 is a commercially available antimicrobial oral rinse with 0.12% chlorhexidine gluconate. Oral Care Compositions #2-#5 are the same as Oral Care Composition #1 except they include the specified amounts (by weight) of a metal chelator.

With `O=P(O)(O)CN(CP(=O)(O)O)CP(=O)(O)O` [ATMP, aminotris(methylenephosphonic acid)] the “staining reduction, comparison of chelators” value ([1]; ATMP versus IDA, every cycle) was “performed better at every cycle compared to IDA” and the “effect on teeth staining caused by CHX” value [1] was “decreased the amount of teeth staining caused by CHX”.
For `N[C@@H](CC(=O)O)C(=O)O` [Aspartic acid], the “relative performance in reducing CHX-staining” value ([2]; 1 weight % added to commercial rinse (0.12% chlorhexidine gluconate)) was “best performers” and the “effect on CHX-staining (ΔW*)” value [2] was “significantly reduced the amount of CHX-staining”.
For `[Cl][Fe]([Cl])[Cl]` [FeCl3 alone, FeCl3], the “ΔW* (change in whiteness)” value ([1]; Cycle 0 (baseline), more positive = darker tooth) was 0, the “ΔW* (change in whiteness)” value ([1]; Cycle 4 of treatment/artificial saliva soaking) was 1.31 and the “ΔW* (change in whiteness)” value ([1]; Cycle 6 of treatment/artificial saliva soaking) was 0.83. For the same compound, the “ΔW* (change in whiteness)” value ([1]; Cycle 8 of treatment/artificial saliva soaking) was 0.90, the “ΔW* (change in whiteness)” value ([1]; Cycle 10 of treatment/artificial saliva soaking) was 0.64 and the “ΔW* (change in whiteness)” value ([1]; Cycle 14 of treatment/artificial saliva soaking) was 0.78.
In the case of `N[C@@H](CCC(=O)O)C(=O)O` [Glutamic acid], the “relative performance in reducing CHX-staining” value ([2]; 0.2 weight % added to commercial rinse (0.12% chlorhexidine gluconate)) was “best performers” and the “effect on CHX-staining (ΔW*)” value [2] was “significantly reduced the amount of CHX-staining”.
For `O=C(O)CC(NC(CC(=O)O)C(=O)O)C(=O)O` (stereo not shown) [Imminodisuccinic acid], the “effect on teeth staining caused by CHX” value [1] was “decreased the amount of teeth staining caused by CHX”.
